Experimental data from patent US20250295119A1, “SPHERICAL NAN[…] FROM TMGMV IMPROVE SOIL TRANSPORT OF SMALL, HYDROPHOBIC AGROCHEMICALS” (THE REGENTS OF THE UNIVERSITY OF CALIFORNIA, priority 2022, published 2025).

Experiments:
C. elegans [1] = assay: Pluronic F127 gel burrowing assay after treatment of C. elegans in solution; assay type: in vivo, Caenorhabditis elegans; settings: 10 μM ivermectin (normalized), 90 minutes incubation in solution, no soil passage
Description: (§1) As a final test, Applicant delivered IVN-SNPs against C. elegans (FIG. 4). Nematodes were incubated with SNPs, IVN-SNPs, and free IVN for 90 minutes in solution. In parallel, the same (IVN-)SNPs were passed through a soil column and collected before treating the C. elegans in solution. For all samples, Applicant performed a modified gel burrowing assay (FIG. 4A) by transferring the nematodes and casting them in Pluronic F127 in a well-plate^23. The surface was coated with E. coli OP-50 lysate to attract the nematodes, and the number of C. elegans which penetrated to the surface were counted. Nematode mobility was quantified based on their total track coverage using edge detection (FIGS. 4B-4D, FIG. 13, FIG. 14). The mobility was then estimated using the following equation: […]
Using the optimized Pluronic concentration of 26% w/w previously reported, Pluronic F127 solutions were stored at 4° C. to dissolve and stay soluble (Lesanpezeshki, L. et al., Scientific Reports 2019). […] After 2 hours, an 11×11 area scan at 4× magnification (Keyence BZ-X800 Fluorescence Microscope) was taken for each well. The number of nematodes on the surface were counted manually and the area fraction of their tracks was determined by edge detection and binary image transformation in ImageJ.

C. elegans [2] = assay: Pluronic F127 gel burrowing assay with samples first passed through a 10 cm soil column; assay type: in vivo, Caenorhabditis elegans; settings: 10 μM ivermectin, collected fractions
Description: as §1
Magic Topsoil (Michigan Peat) was weighed and packed into a cylindrical column fitted with miracloth at the bottom. […] The band intensity of the fractions on SDS PAGE was determined using ImageJ. […]
Using the optimized Pluronic concentration of 26% w/w previously reported, Pluronic F127 solutions were stored at 4° C. to dissolve and stay soluble (Lesanpezeshki, L. et al., Scientific Reports 2019). […] After 2 hours, an 11×11 area scan at 4× magnification (Keyence BZ-X800 Fluorescence Microscope) was taken for each well. […]

## ivermectin
C. elegans [1]
  reduction in surface velocity: 4.5 fold
  reduction in the number of nematodes on the surface: 6 fold
C. elegans [2]
  reduction in surface velocity after passing through a soil column: no reduction
  reduction in the number of nematodes after passing through a soil column: no reduction
